# US6794372B2, “Nitrate salts of antimicrobial agents” (Nicox S.A., priority 2000, dated 2004)
# Columns and labels:
# [1] = system: Staphylococcus Aureus (ATCC29213); assay: Dilution test in vitro on medium for antibacterial agents, strain S. Aureus; assay type: cell-based; details: CAMH broth, 5×10^5 CFU/ml, 35° C. for 20 hr, read with the naked eye
# Description: (§1) Dilution Test in vitro on Medium for Antibacterial Agents
# (§2) Such activity has been determined by using the dilution method in vitro on culture medium as described by Sahm et al. (S. D. Sahm, J. A. Washington “Antibacterial susceptibility tests: dilution methods” in: Manual of Clinical Microbiology, ed. A. Balows, W. J. Hausler, Jr, K. L. Hermann, H. D. Isenberg, H. J. Shadomy, 1991, American Society for Microbiology). According to this method a concentration in aqueous solution of substance having antimicrobial activity able to inhibit the growth of some bacterial strains is determined. For the precursor the maximum concentration of the substance at which the microbial growth is still observed under the adopted experimental conditions is selected and the same concentration is used for the corresponding nitrate salt. The solvents and the necessary dilutions for preparing the strain substances of the antibiotics to be tested are prepared according to procedures standard and well known to the person skilled in the field (National Committee for Clinical Laboratory Standards, 1990 “Methods for dilution antimicrobial susceptibility tests for bacteria that grow aerobically. Approved standard M7-A2. National Committee for Clinical Laboratory Standards, Villanova, Pa.). Also the preparation of the culture medium is carried out according to standard procedures and the CAMH broth is used (Cation-adjusted Mueller-Hinton broth) (National Committee for Clinical Laboratory Standards, 1990, Methods for dilution antimicrobial susceptibility tests for bacteria that grow aerobically. Approved standard M7-A2. National Committee for Clinical Laboratory Standards, Villanova, Pa.).
# (§3) The inoculation procedure is carried out according to standard procedures and the final concentration of the inocolum is of 5×10^5 CFU (colony forming unit)/ml. The used microorganisms have been Escherichia Coli (ATCC25922) and Staphylococcus Aureus (ATCC29213).
# (§4) The test tubes are incubated at 35° C. for 20 hr before reading. The microbial growth, or the absence of the same, is determined in a qualitative way, with the naked eye and it indicates the microbial resistance or, respectively, the sensitivity to the antimicrobial agent.
# [2] = system: Escherichia Coli (ATCC25922); assay: Dilution test in vitro on medium for antibacterial agents, strain E. Coli; assay type: cell-based; details: CAMH broth, 5×10^5 CFU/ml, 35° C. for 20 hr, read with the naked eye
# Description: as §1
# The capability to antagonize the arising of the microbial resistance of the nitrate salts of the antimicrobial compounds in comparison with that of the respective precursors has been evaluated.
# as §2, §3, §4
structure (smiles),measurement,setting,value
"CC[C@H]1OC(=O)[C@H](C)[C@@H](O[C@H]2C[C@@](C)(OC)[C@@H](O)[C@H](C)O2)[C@H](C)[C@@H](O[C@@H]2O[C@H](C)C[C@H](N(C)C)[C@H]2O)[C@](C)(O)C[C@@H](C)C(=O)[C@H](C)[C@@H](O)[C@]1(C)O.O=[N+]([O-])O [Erythromycin.HNO3, Erythromycin nitrate salt]",RESPONSE (microbial growth),[1]; concentration 0.06 μg/ml,No growth
COc1cc(Cc2cnc(N)nc2N)cc(OC)c1OC [Trimethoprim],RESPONSE (microbial growth),[1]; concentration 0.5 μg/ml,Growth
CC1(C)S[C@@H]2[C@H](NC(=O)[C@H](N)c3ccccc3)C(=O)N2[C@H]1C(=O)O [Ampicillin],RESPONSE (microbial growth),[2]; concentration 1.0 μg/ml,Growth
"COc1cc(Cc2cnc(N)nc2N)cc(OC)c1OC.O=[N+]([O-])O [Trimethoprim.HNO3, Trimethoprim nitrate salt]",RESPONSE (microbial growth),[1]; concentration 0.5 μg/ml,No growth
CC[C@H]1OC(=O)[C@H](C)[C@@H](O[C@H]2C[C@@](C)(OC)[C@@H](O)[C@H](C)O2)[C@H](C)[C@@H](O[C@@H]2O[C@H](C)C[C@H](N(C)C)[C@H]2O)[C@](C)(O)C[C@@H](C)C(=O)[C@H](C)[C@@H](O)[C@]1(C)O [Erythromycin],RESPONSE (microbial growth),[1]; concentration 0.06 μg/ml,Growth
Cc1cc(NS(=O)(=O)c2ccc(N)cc2)no1 [Sulfamethoxazole],RESPONSE (microbial growth),[1]; concentration 20 μg/ml,Growth
"Cc1nnc(SCC2=C(C(=O)O)N3C(=O)[C@@H](NC(=O)Cn4cnnn4)[C@H]3SC2)s1.O=[N+]([O-])O [Cefazolin.HNO3, Cefazolin nitrate salt]",RESPONSE (microbial growth),[2]; concentration 0.5 μg/ml,No growth
Cc1nnc(SCC2=C(C(=O)O)N3C(=O)[C@@H](NC(=O)Cn4cnnn4)[C@H]3SC2)s1 [Cefazolin],RESPONSE (microbial growth),[2]; concentration 0.5 μg/ml,Growth
CCC[C@@H]1C[C@@H](C(=O)N[C@@H]([C@H]2O[C@H](SC)[C@H](O)[C@@H](O)[C@H]2O)[C@H](C)Cl)N(C)C1 [Clindamycin],RESPONSE (microbial growth),[1]; concentration 0.03 μg/ml,Growth
"CCCC1CC(C(=O)NC(C(C)Cl)C2OC(SC)C(O)C(O)C2O)N(C)C1.O=[N+]([O-])O (centres unmarked) [Clindamycin.HNO3, Clindamycin nitrate salt]",RESPONSE (microbial growth),[1]; concentration 0.03 μg/ml,No growth
"Cc1cc(NS(=O)(=O)c2ccc(N)cc2)no1.O=[N+]([O-])O [Sulfamethoxazole.HNO3, Sulfamethoxazole nitrate salt]",RESPONSE (microbial growth),[1]; concentration 20 μg/ml,No growth
"CC1(C)S[C@@H]2[C@H](NC(=O)[C@H](N)c3ccccc3)C(=O)N2[C@H]1C(=O)O.O=[N+]([O-])O [Ampicillin.HNO3, Ampicillin nitrate salt]",RESPONSE (microbial growth),[2]; concentration 1.0 μg/ml,No growth
O=C(O)c1cn(C2CC2)c2cc(N3CCNCC3)c(F)cc2c1=O [Ciprofloxacin],RESPONSE (microbial growth),[1]; concentration 0.05 μg/ml,Growth
"O=C(O)c1cn(C2CC2)c2cc(N3CCNCC3)c(F)cc2c1=O.O=[N+]([O-])O [Ciprofloxacin.HNO3, Ciprofloxacin nitrate salt]",RESPONSE (microbial growth),[1]; concentration 1.0 μg/ml,No growth
